The target of experiment [1] is T1, NK1 TACHYKININ RECEPTOR, HUMAN(CHO) (Homo sapiens, UniProt P25103). The experiment is described as follows: biochemical.
Method: (§1) As a sample, NK1 TACHYKININ RECEPTOR, HUMAN(CHO) diluted with incubation buffer (20 mM HEPES/NaOH buffer containing 1 mM MgCl2, 0.1% BSA: pH 7.4) was used (18.75 µg protein/ml). […] And 20 µl of CP-99,994 (final concentration of 1.5 µM) and 20 µl of distilled water were added to determine the amount of nonspecific binding and the amount of total binding, respectively. […] After one hour of incubation, the incubated mixture was filtered with suction and washed with a wash buffer (50 mM Tris/HCl buffer: pH 7.4) four times. The membrane fitted to each well of the MultiScreen was completely dried and punched inside each vial, and 5 ml of cocktail was added to give a sample to be measured.
Another experiment relates to male ferrets. As to the kind of experiment: Antiemetic action against cisplatin-induced vomiting. Conditions: test compound 3 mg/kg intravenously; cisplatin 10 mg/kg intraperitoneal; observed over six hours; inhibition vs control group, number of episodes. The class given is in vivo. As for the experimental part: A test was conducted using male ferrets (around 1.2 kg body weight) as follows. Vomiting was induced by intraperitoneal administration of 10 mg/kg of cisplatin to the ferrets in a volume of 3 ml/kg. […] Each test compound was administered intravenously through radial skin at a dose of 3 mg/kg, and immediately after the administration, cisplatin was administered intraperitoneally. Then vomiting symptoms due to cisplatin was observed over six hours. […] The results are shown in Table 2 in terms of rates of inhibition to a control group using the number of times symptoms of vomiting occurred as an index.

Experiment [2] has as its target T1, NK1 TACHYKININ RECEPTOR, HUMAN(CHO).
Method: as §1

These results are taken from patent publication EP1219619B1, “3-AMINO-2-[…] DERIVATIVES AS SUBSTANCE P ANTAGONISTS” (HISAMITSU PHARMACEUTICAL CO. INC., priority 1999, dated 2001).

Structures can show the parent of a compound that is named as a salt. Where two headings read alike, the source gives them in different places.

One may read the Ki as a measure of affinity in units of concentration, obtained from inhibition or displacement.

T1 sequence (P25103 whole entry): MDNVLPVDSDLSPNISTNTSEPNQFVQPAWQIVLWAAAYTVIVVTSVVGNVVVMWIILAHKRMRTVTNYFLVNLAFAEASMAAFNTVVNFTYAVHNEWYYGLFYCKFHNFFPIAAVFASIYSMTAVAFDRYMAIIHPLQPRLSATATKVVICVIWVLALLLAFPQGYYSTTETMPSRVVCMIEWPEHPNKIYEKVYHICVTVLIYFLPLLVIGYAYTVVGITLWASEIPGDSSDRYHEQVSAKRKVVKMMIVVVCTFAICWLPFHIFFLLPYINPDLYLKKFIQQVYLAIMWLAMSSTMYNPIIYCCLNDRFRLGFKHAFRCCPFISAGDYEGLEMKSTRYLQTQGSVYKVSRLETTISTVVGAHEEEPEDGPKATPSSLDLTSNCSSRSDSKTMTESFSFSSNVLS

With `Cl.c1ccc([C@@H]2NCCC[C@@H]2NCc2cc(-n3cnnn3)cc3c2OCC3)cc1` [Example 3, (2S,3S)-3-[(5-(tetrazole-1-yl)-2,3-dihydrobenzofuran-7-yl)methyl]amino-2-phenylpiperidine hydrochloride], the affinity in experiment [1] corresponds to a Ki of 0.18 nM. In the experiment with male ferrets, the “Rate of Inhibition (%) Retching” value turned out to be 59.1% and the “Rate of Inhibition (%) Vomiting” value worked out at 61.0%.

Molecule `c1ccc([C@@H]2NCCC[C@@H]2NCc2cc(-c3cccs3)cc3c2OCC3)cc1` [Example 6, (2S,3S)-3-[(5-(thiophene-2-yl)-2,3-dihydrobenzofuran-7-yl)methyl]amino-2-phenylpiperidine hydrochloride] displayed a Ki in experiment [1] of 0.35 nM.

The molecule `c1ccc([C@@H]2NCCC[C@@H]2NCc2cc(-c3ccsc3)cc3c2OCC3)cc1` [Example 7, (2S,3S)-3-[(5-(thiophene-3-yl)-2,3-dihydrobenzofuran-7-yl)methyl]amino-2-phenylpiperidine hydrochloride] displayed a Ki in experiment [1] of 0.35 nM.

On to `Cl.FC(F)(F)c1ccc(-c2cc3c(c(CN[C@H]4CCCN[C@H]4c4ccccc4)c2)OCC3)cc1` [Example 12, (2S,3S)-3-[(5-(4-trifluoromethylphenyl)-2,3-dihydrobenzofuran-7-yl)methyl]amino-2-phenylpiperidine hydrochloride], for which affinity in experiment [1] was put at a Ki of 1.01 nM. Further, in the experiment with male ferrets, the “Rate of Inhibition (%) Retching” value is reported as 88.4% and the “Rate of Inhibition (%) Vomiting” value came out at 91.1%.

For `Cl.FC(F)(F)c1nc(-c2cc3c(c(CN[C@H]4CCCN[C@H]4c4ccccc4)c2)OCC3)no1` [Example 15, (2S, 3S)-3-[(5-(5-trifluoromethyl-1,2,4-oxadiazole-3-yl)-2,3-dihydrobenzofuran-7-yl)methyl]amino-2-phenylpiperidine hydrochloride], in the experiment on male ferrets, the “Rate of Inhibition (%) Retching” value is listed as 63.2% and the “Rate of Inhibition (%) Vomiting” value turned out to be 66.8%.

With `Cl.c1ccc([C@@H]2NCCC[C@@H]2NCc2c3c(cc4c2OCC4)OCC3)cc1` [Example 16, (2S,3S)-3-[(2,3,6,7-tetrahydrobenzo[1,2-b:4,5-b']difuran-4-yl)methyl]amino-2-phenylpiperidine hydrochloride], the Ki in experiment [1] stood at 1.53 nM. For the same molecule, in the experiment on male ferrets, the “Rate of Inhibition (%) Retching” value is recorded as 58.7% and the “Rate of Inhibition (%) Vomiting” value is reported as 62.6%.

For the molecule “(2S,3S)-3-[(5-phenyl-2,3-dihydrobenzofuran-7-yl)methyl]amino-2-phenylpiperidine hydrochloride [Example 9]”, in the experiment on male ferrets, the “Rate of Inhibition (%) Retching” value stood at 68.4% and the “Rate of Inhibition (%) Vomiting” value amounted to 59.3%. For the same molecule, the affinity in experiment [2], expressed as Ki, was 0.41 nM.
